Patent US9371320B2, “Heterocyclic compound” (TAKEDA PHARMACEUTICAL COMPANY LIMITED, priority 2012, dated 2016)
Like-named read-outs stand apart in the source and are kept apart here.

Columns and labels:
JAK1 = target: T1, JAK1 (Homo sapiens, UniProt P23458); test: JAK1 enzyme inhibition test (LANCE method); type: biochemical; details: for inhibition at 1 µM: test compound 1 μM, read-out: Inhibitory rate (%) JAK1 1 μM; for inhibition at 10 µM: read-out: Inhibitory rate (%) JAK1 10 μM
T1 construct: purchased Invitrogen
Method in brief: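 Reactions ran 1 h at room temperature in HEPES pH 7.5/MgCl2 buffer, with ATP solution at 150 μM and JAK1 and ULight peptide solutions at 187.5 ng/mL and 300 nM. Reactions were stopped with EDTA, and phosphorylation was read by Eu antibody time-resolved fluorescence at 665 nm. Inhibition was scaled to a no-enzyme control as 100%.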

Tyk2 = target: T2, Tyk2 (Homo sapiens, UniProt P29597); test: Tyk2 enzyme inhibition test (LANCE method); type: biochemical; details: for inhibition at 1 µM: test compound 1 μM, read-out: Inhibitory rate (%) Tyk2 1 μM
T2 construct: purchased Invitrogen
Method in brief: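 LANCE TR-FRET read-out (ex 340/em 665 nm, 100 μs delay) of ULight-JAK1 phosphorylation, with no-enzyme wells as 100% inhibition. Reaction run 1 h at room temperature in pH 7.5 HEPES buffer; enzyme 375 ng/mL, substrate 300 nM and ATP 30 μM are solution concentrations before mixing.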

T2 sequence (P29597 whole entry): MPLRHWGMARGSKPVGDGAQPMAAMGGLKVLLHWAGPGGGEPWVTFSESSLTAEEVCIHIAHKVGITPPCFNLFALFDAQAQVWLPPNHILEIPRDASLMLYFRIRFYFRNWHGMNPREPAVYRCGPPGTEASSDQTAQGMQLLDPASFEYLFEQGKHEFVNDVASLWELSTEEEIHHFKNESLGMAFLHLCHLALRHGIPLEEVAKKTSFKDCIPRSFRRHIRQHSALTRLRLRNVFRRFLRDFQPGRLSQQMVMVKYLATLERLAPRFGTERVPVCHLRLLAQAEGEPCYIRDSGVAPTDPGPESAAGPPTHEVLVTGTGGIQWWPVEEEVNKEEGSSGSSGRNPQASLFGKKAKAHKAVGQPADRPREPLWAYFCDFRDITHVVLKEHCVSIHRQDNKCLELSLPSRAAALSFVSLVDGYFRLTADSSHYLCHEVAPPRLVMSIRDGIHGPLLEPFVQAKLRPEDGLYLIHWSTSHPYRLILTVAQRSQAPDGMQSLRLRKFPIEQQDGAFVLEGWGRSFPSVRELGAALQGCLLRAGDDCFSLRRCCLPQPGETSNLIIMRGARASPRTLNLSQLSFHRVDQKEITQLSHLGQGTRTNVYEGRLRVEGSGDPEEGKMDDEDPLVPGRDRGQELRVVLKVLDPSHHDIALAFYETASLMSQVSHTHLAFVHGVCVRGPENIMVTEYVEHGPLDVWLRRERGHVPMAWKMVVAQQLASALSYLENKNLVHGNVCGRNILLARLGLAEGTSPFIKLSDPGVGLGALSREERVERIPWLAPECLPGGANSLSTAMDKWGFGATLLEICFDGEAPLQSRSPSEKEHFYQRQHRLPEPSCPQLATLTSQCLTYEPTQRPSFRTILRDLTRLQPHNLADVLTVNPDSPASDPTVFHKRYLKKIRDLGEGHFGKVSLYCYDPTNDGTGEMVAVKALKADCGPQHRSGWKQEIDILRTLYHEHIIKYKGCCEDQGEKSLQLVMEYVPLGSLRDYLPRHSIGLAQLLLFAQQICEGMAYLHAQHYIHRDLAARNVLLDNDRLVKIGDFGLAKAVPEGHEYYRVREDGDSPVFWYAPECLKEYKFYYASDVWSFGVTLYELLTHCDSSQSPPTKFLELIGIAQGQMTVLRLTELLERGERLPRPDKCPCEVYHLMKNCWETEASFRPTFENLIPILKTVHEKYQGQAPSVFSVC
T1 sequence (P23458 whole entry): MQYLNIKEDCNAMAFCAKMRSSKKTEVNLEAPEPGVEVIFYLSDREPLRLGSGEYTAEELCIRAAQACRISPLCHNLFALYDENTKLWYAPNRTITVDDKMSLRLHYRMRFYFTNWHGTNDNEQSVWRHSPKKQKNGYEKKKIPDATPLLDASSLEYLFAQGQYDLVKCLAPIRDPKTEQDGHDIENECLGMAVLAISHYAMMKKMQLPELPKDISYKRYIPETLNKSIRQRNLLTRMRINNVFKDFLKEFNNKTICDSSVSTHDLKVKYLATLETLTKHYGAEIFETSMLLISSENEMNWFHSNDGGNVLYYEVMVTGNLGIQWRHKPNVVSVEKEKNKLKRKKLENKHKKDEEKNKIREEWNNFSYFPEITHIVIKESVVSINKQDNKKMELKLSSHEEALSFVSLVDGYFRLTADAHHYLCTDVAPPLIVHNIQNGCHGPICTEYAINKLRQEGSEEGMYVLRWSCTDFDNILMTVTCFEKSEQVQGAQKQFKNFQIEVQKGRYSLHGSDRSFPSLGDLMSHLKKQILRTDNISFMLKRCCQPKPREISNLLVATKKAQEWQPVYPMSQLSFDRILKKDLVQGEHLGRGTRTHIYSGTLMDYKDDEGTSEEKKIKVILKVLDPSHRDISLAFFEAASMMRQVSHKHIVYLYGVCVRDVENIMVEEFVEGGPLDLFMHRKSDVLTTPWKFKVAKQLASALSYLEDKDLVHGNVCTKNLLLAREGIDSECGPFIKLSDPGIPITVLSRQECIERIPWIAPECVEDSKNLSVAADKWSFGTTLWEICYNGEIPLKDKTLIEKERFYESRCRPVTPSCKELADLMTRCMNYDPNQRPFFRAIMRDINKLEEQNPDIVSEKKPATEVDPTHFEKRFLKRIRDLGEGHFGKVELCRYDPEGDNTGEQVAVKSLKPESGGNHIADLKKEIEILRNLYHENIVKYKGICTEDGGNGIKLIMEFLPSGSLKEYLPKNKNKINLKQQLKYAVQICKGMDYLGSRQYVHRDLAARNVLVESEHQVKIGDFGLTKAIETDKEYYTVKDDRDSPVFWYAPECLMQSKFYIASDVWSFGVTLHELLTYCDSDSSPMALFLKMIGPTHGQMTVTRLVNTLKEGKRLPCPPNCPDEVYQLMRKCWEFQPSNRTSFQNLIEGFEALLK

SMILES | inhibition at 1 µM (JAK1) | inhibition at 1 µM (Tyk2) | inhibition at 10 µM (JAK1; test compound 10 μM (Ex. 182-220), beside Tyk2 1 μM) | inhibition at 10 µM (JAK1; test compound 10 μM) | inhibition at 10 µM (Tyk2; test compound 10 μM, read-out: Inhibitory rate (%) Tyk2 10 μM)
N#CCc1cccc(-c2nn(C3CCCC3)c3cc[nH]c(=O)c23)c1 [Example 128, (3-(1-cyclopentyl-4-oxo-4,5-dihydro-1H-pyrazolo[4,3-c]pyridin-3-yl)phenyl)acetonitrile] | 93% | 93% |  |  | 
Cc1ccccc1-c1nn(-c2csc(C(N)=O)c2)c2c(=O)[nH]cc(Br)c12 [Example 80, 4-(4-bromo-3-(2-methylphenyl)-7-oxo-6,7-dihydro-1H-pyrazolo[3,4-c]pyridin-1-yl)thiophene-2-carboxamide] | 82% | 97% |  |  | 
CC(=O)Nc1ccc(-c2nn(-c3c(F)cccc3F)c3cc[nH]c(=O)c23)cc1 [Example 277, N-(4-(1-(2,6-difluorophenyl)-4-oxo-4,5-dihydro-1H-pyrazolo[4,3-c]pyridin-3-yl)phenyl)acetamide] | 95% | 99% |  |  | 
N#Cc1c[nH]c(=O)c2c1c(C1CCCC1)nn2-c1csc(C(=O)O)c1 [Example 65, 4-(4-cyano-3-cyclopentyl-7-oxo-6,7-dihydro-1H-pyrazolo[3,4-c]pyridin-1-yl)thiophene-2-carboxylic acid] | 27% | 76% |  |  | 
N#CCc1cccc(-c2cn(C3CCCC3)c3c(C#N)c[nH]c(=O)c23)c1 [Example 109, 3-(3-(cyanomethyl)phenyl)-1-cyclopentyl-4-oxo-4,5-dihydro-1H-pyrrolo[3,2-c]pyridine-7-carbonitrile] | 61% | 94% |  |  | 
O=c1[nH]ccc2c1c(-c1cn[nH]c1)nn2-c1c(F)cccc1F [Example 151, 1-(2,6-difluorophenyl)-3-(1H-pyrazol-4-yl)-1,5-dihydro-4H-pyrazolo[4,3-c]pyridin-4-one] | 98% | 98% |  |  | 
N#Cc1c[nH]c(=O)c2c(-c3ccccn3)cn(C3CCCC3)c12 [Example 132, 1-cyclopentyl-4-oxo-3-(pyridin-2-yl)-4,5-dihydro-1H-pyrrolo[3,2-c]pyridine-7-carbonitrile] | 27% | 74% |  |  | 
NS(=O)(=O)c1ccc(-c2cn(C3CCOC3)c3cc[nH]c(=O)c23)cc1 (stereo not drawn) [Example 18, 4-(4-oxo-1-(tetrahydrofuran-3-yl)-4,5-dihydro-1H-pyrrolo[3,2-c]pyridin-3-yl)benzenesulfonamide] | 93% | 80% |  |  | 
N#Cc1c[nH]c(=O)c2c(-c3ccccc3)cn(C3CCCC3)c12 [Example 103, 1-cyclopentyl-4-oxo-3-phenyl-4,5-dihydro-1H-pyrrolo[3,2-c]pyridine-7-carbonitrile] | 48% | 91% |  |  | 
N#Cc1c[nH]c(=O)c2c(-c3cccs3)cn(C3CCCC3)c12 [Example 134, 1-cyclopentyl-4-oxo-3-(2-thienyl)-4,5-dihydro-1H-pyrrolo[3,2-c]pyridine-7-carbonitrile] | 78% | 97% |  |  | 
Cc1ccccc1-n1nc(-c2ccc(S(N)(=O)=O)cc2)c2c(=O)[nH]ccc21 [Example 211, 4-(1-(2-methylphenyl)-4-oxo-4,5-dihydro-1H-pyrazolo[4,3-c]pyridin-3-yl)benzenesulfonamide] |  | 98% | 99% |  | 
NS(=O)(=O)c1ccc(-c2nn(C3CCC(O)CC3)c3cc[nH]c(=O)c23)cc1 (stereo not drawn) [Example 119, 4-(1-(4-hydroxycyclohexyl)-4-oxo-4,5-dihydro-1H-pyrazolo[4,3-c]pyridin-3-yl)benzenesulfonamide] | 100% | 99% |  |  | 
N#Cc1c[nH]c(=O)c2c(-c3cnn(C4CCCC4)c3)cn(C3CCCC3)c12 [Example 137, 1-cyclopentyl-3-(1-cyclopentyl-1H-pyrazol-4-yl)-4-oxo-4,5-dihydro-1H-pyrrolo[3,2-c]pyridine-7-carbonitrile] | 77% | 98% |  |  | 
Cc1c[nH]c(=O)c2c(-c3ccc(N4CCOCC4)cc3)nn(-c3c(F)cccc3F)c12 [Example 235, 1-(2,6-difluorophenyl)-7-methyl-3-(4-(morpholin-4-yl)phenyl)-1,5-dihydro-4H-pyrazolo[4,3-c]pyridin-4-one] | 92% | 99% |  |  | 
O=c1[nH]ccc2c1c(-c1ccc(C3CCOCC3)cc1)nn2-c1c(F)cccc1F [Example 257, 1-(2,6-difluorophenyl)-3-(4-(tetrahydro-2H-pyran-4-yl)phenyl)-1,5-dihydro-4H-pyrazolo[4,3-c]pyridin-4-one] | 96% | 98% |  |  | 
N#CCc1ccc(-c2cn(C3CCCC3)c3c(C#N)c[nH]c(=O)c23)cc1 [Example 96, 3-(4-(cyanomethyl)phenyl)-1-cyclopentyl-4-oxo-4,5-dihydro-1H-pyrrolo[3,2-c]pyridine-7-carbonitrile] | 94% | 99% |  |  | 
CC(C)(C)n1nc(N)c2c(=O)[nH]ccc21 [Example 264, 3-amino-1-tert-butyl-1,5-dihydro-4H-pyrazolo[4,3-c]pyridin-4-one] |  |  |  | 44% | 12%
COCCN(C)c1ccc(-c2nn(-c3c(F)cccc3F)c3c(Cl)c[nH]c(=O)c23)cc1 [Example 241, 7-chloro-1-(2,6-difluorophenyl)-3-(4-((2-methoxyethyl)(methyl)amino)phenyl)-1,5-dihydro-4H-pyrazolo[4,3-c]pyridin-4-one] | 53% | 98% |  |  | 
